Common to all, as to format: cell-based
One experiment concerns NCI-H460. As to the kind of experiment: Viability assay with NCI-H460 (CellTiter-Glo cytotoxicity assay, 72 h). The note with it: NCI-H460 cell line, 72 h after compounds addition. An outline of the steps: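 NCI-H460 cells, RPMI 1640 + 10% FBS, seeded 1200/well and adhered overnight, then exposed to compounds at 9 points, 2-fold dilution, in triplicate, 0.5% DMSO final. Cellular ATP measured by CellTiter-Glo luminescence 72 h after addition.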
A general note: In ATP-based viability assays light output follows the ATP content of the culture.

A further experiment relates to MIA PaCa-2. As to the kind of experiment: Viability assay with MIA PaCa-2. As to conditions: MIA PaCa-2, viability assay per Example 57. An outline of the steps: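 MIA PaCa-2 cells were seeded at 1200/well, allowed to adhere overnight, then treated in triplicate with 9-point 2-fold compound dilutions at 0.5% final DMSO. Viability was measured as cellular ATP by CellTiter-Glo luminescence 72 h after compound addition.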

For a further experiment, the system named is NCI-H2023. In words: Viability assay with NCI-H2023. As to conditions: NCI-H2023, viability assay per Example 57. The protocol:
NCI-H460 (Epithelial lung tissue; carcinoma; large cell lung cancer) were cultured in RPMI Medium 1640 (Invitrogen-22400105) supplemented with 10% fetal bovine serum (FBS; Invitrogen-10099141). All the cell lines were maintained in a humidified incubator at 37° C. with 5% CO2. Cell culture media and supplements were purchased from Invitrogen, and tissue culture flasks were purchased from Corning, 96-well plates were purchased from Greiner. CellTiter-Glo Luminescent Cell Viability Assay kits were purchased from Promega (Promega-G7573), cells counter Vi-Cell was purchased from Beckman, D300e digital dispenser was purchased from Tecan, detection instrument Envision was purchased from PerkinElmer.
Paclitaxel was purchased from SELLECK, test compounds, such as any one of the compounds disclosed herein, attained solubility in DMSO and when diluted into culture media. DMSO, solutions containing the test compounds, and culture media were warmed to 37° C. or room temperature for the solution preparation and dilutions.
NCI-H460 Cell line were seeded in 96-well plates (1200/well) and allowed to adhere to overnight (100 uL/well), for drug treatments with 2 fold dilution, 9 dose points, triplicates or vehicle control, compound stock solutions were prepared in DMSO and use D300e digital dispenser to add compounds to the wells to give the indicated final drug concentrations. Final DMSO concentration was 0.5%. Cellular ATP concentrations were assessed by using the CellTiter-Glo Cell Viability Assay as per the manufacturer's instructions 72 h after compounds addition. Additional cells lines were assayed with any one of the compounds disclosed herein according to the procedures described for the viability assay with NCI-H460.
A viability assay with NCI-H2023 (stage 3A, adenocarcinoma; non-small cell lung cancer) was performed with compounds listed in Table 16 according to the procedures described in Example 57.

Molecules are shown by their SMILES. Structures can show the parent of a compound that is named as a salt.

One may read the EC50 as the concentration that produces a half-maximal response. A lower EC50 goes with a more potent agent.

With `OCCNCCCn1cc(-c2ccc(OC(F)(F)F)cc2)c2cc(CN3CCN(Cc4c(Cl)cccc4Cl)CC3)ccc21` [Compound C20, 2-(3-(5-((4-(2,6-dichlorobenzyl)piperazin-1-yl)methyl)-3-(4-(trifluoromethoxy)phenyl)-1H-indol-1-yl)propylamino)ethanol], the EC50 in the experiment on NCI-H460 (Homo sapiens), in the experiment with MIA PaCa-2 (Homo sapiens) and in the experiment with NCI-H2023 was no more than 5 µM throughout.

On to `NCCCn1cc(-c2ccc(F)cc2)c2cc(CN3CCN(Cc4c(Cl)cccc4Cl)CC3)ccc21` [C23; Formic acid], for which the EC50 with NCI-H460, in the experiment with MIA PaCa-2 and with NCI-H2023 was no more than 5 µM each time.

For `NC1(C(=O)NCCCn2cc(-c3ccc(OC(F)(F)F)cc3)c3cc(CN4CCN(c5ccccc5)CC4)ccc32)CCNCC1` [C38; HCl], the EC50 with NCI-H460, with MIA PaCa-2 and with NCI-H2023 was no more than 5 µM each time.

Regarding `NCCCn1cc(-c2ccc(OC(F)(F)F)cc2)c2cc(CN3CCN(S(=O)(=O)c4ccccc4Cl)CC3)ccc21` [C14; HCl], the EC50 in the experiment with NCI-H460, with MIA PaCa-2 and with NCI-H2023 was no more than 5 µM in each case.

On to `CC(C)N1CCN(Cc2ccc3c(c2)c(-c2ccc(OC(F)(F)F)cc2)cn3CCCNC(=O)C2(N)CCNCC2)CC1` [C34; HCl], for which the EC50 in the experiment on NCI-H460, with MIA PaCa-2 and in the experiment with NCI-H2023 was 10 to 30 µM throughout.

For the compound `NC1CCC(c2cn(-c3ccc(OC(F)(F)F)cc3)c3cc(CN4CCN(Cc5c(Cl)cccc5Cl)CC4)ccc23)C1` (stereo not drawn) [C30; HCl], the EC50 in the experiment on NCI-H460, in the experiment with MIA PaCa-2 and with NCI-H2023 was no more than 5 µM each time.

Take `NC1(C(=O)NCCCn2cc(-c3ccc(OC(F)(F)F)cc3)c3cc(CN4C5CCC4CN(Cc4c(Cl)cccc4Cl)C5)ccc32)CCNCC1` [C56; HCl]: the EC50 in the experiment with NCI-H460, with MIA PaCa-2 and with NCI-H2023 was no more than 5 µM each time.

For the compound `NCCCn1cc(-c2ccc(N)nc2)c2cc(CN3CCN(Cc4c(Cl)cccc4Cl)CC3)ccc21` [C18; HCl], the EC50 in the experiment with NCI-H460, in the experiment with MIA PaCa-2 and in the experiment with NCI-H2023 was no more than 5 µM in each case.

`NCCCn1cc(-c2ccc(O)cc2)c2cc(CN3CCN(Cc4c(Cl)cccc4Cl)CC3)ccc21` [C44; HCl]: the EC50 in the experiment with NCI-H460, in the experiment on MIA PaCa-2 and with NCI-H2023 was no more than 5 µM each time.

As to `CNCc1ccc2c(c1)c(-c1ccc(OC(F)(F)F)cc1)cn2CCCNC(=O)C1(N)CCNCC1` [C16; HCl], the EC50 in the experiment on NCI-H460, in the experiment on MIA PaCa-2 and in the experiment on NCI-H2023 was greater than 30 µM in each case.

With `NCCCn1cc(-c2ccccc2)c2cc(CN3CCN(Cc4c(Cl)cccc4Cl)CC3)ccc21` [C37; HCl], the EC50 in the experiment with NCI-H460 was no more than 5 µM; in the experiment with MIA PaCa-2, 5 to 10 µM; in the experiment on NCI-H2023, 5 to 10 µM.

Take `NCCNCCCn1cc(-c2ccc(OC(F)(F)F)cc2)c2cc(CN3CCN(Cc4c(Cl)cccc4Cl)CC3)ccc21` [C26; HCl]: the EC50 with NCI-H460, with MIA PaCa-2 and with NCI-H2023 was no more than 5 µM each time.

For `N[C@H]1CC[C@H](n2cc(-c3ccc(OC(F)(F)F)cc3)c3cc(CN4CCN(Cc5c(Cl)cccc5Cl)CC4)ccc32)C1` [C42; HCl], the EC50 with NCI-H460, with MIA PaCa-2 and in the experiment with NCI-H2023 was no more than 5 µM throughout.

For `NCCCn1cc(-c2ccc(OC(F)(F)F)cc2)c2cc(CN3CC4CCC(C3)N4Cc3ccccc3Cl)ccc21` [C17; HCl], the EC50 in the experiment with NCI-H460, in the experiment on MIA PaCa-2 and with NCI-H2023 was no more than 5 µM each time.

For `CC(C)(N)C(=O)NCCCn1cc(-c2ccc(OC(F)(F)F)cc2)c2cc(CN3CCN(Cc4c(Cl)cccc4Cl)CC3)ccc21` [C46; HCl], the EC50 with NCI-H460, in the experiment on MIA PaCa-2 and with NCI-H2023 was no more than 5 µM in each case.

For the compound `NCCCn1cc(-c2ccc(OC(F)(F)F)cc2)c2cc(CN3CC4CCC(C3)N4Cc3c(Cl)cccc3Cl)ccc21` [C32; HCl], the concentration giving a half-maximal response (EC50) in the experiment on NCI-H460, in the experiment on MIA PaCa-2 and with NCI-H2023 was no more than 5 µM throughout.

Take `NCCCn1cc(-c2ccc(N)cc2)c2cc(CN3CCN(Cc4c(Cl)cccc4Cl)CC3)ccc21` [C50; HCl]: the EC50 in the experiment on NCI-H460, in the experiment with MIA PaCa-2 and with NCI-H2023 was no more than 5 µM throughout.

Turning to `NC1(C(=O)NCCCn2cc(-c3ccc(OC(F)(F)F)cc3)c3cc(CN4CCN(Cc5c(F)cccc5F)CC4)ccc32)CCNCC1` [C55; HCl], the EC50 with NCI-H460, with MIA PaCa-2 and in the experiment on NCI-H2023 was no more than 5 µM each time.

With `CN(C)Cc1ccc2c(c1)c(-c1ccc(OC(F)(F)F)cc1)cn2CCCNC(=O)C1(N)CCNCC1` [C29; HCl], the figures for the EC50 in the experiment on NCI-H460, in the experiment with MIA PaCa-2 and in the experiment on NCI-H2023 were 10 to 30 µM, greater than 30 µM and 10 to 30 µM, respectively.

Turning to `NC1(C(=O)NCCCn2cc(-c3ccccc3)c3cc(CN4CCN(Cc5c(Cl)cccc5Cl)CC4)ccc32)CCNCC1` [C24; HCl], the EC50 in the experiment with NCI-H460, in the experiment with MIA PaCa-2 and in the experiment on NCI-H2023 was no more than 5 µM throughout.

Turning to `NC1(C(=O)NCCCn2cc(-c3ccc(OC(F)(F)F)cc3)c3cc(CN4CCN(Cc5c(Cl)cccc5Cl)CC4)ccc32)CCNCC1` [C41; Trifluoroacetic acid], the EC50 in the experiment with NCI-H460, in the experiment on MIA PaCa-2 and with NCI-H2023 was no more than 5 µM each time.

With `N#Cc1ccc(-c2cn(CCCN)c3ccc(CN4CCN(Cc5c(Cl)cccc5Cl)CC4)cc23)cc1` [C33; HCl], the EC50 with NCI-H460, with MIA PaCa-2 and in the experiment with NCI-H2023 was no more than 5 µM in each case.

For the compound `NC1(C(=O)NCCCn2cc(-c3ccc(OC(F)(F)F)cc3)c3cc(CN4CCNCC4)ccc32)CCNCC1` [C48; HCl], the EC50 in the experiment with NCI-H460, with MIA PaCa-2 and with NCI-H2023 was greater than 30 µM each time.

As for `NC1(C(=O)NCCCCn2cc(-c3ccc(OC(F)(F)F)cc3)c3cc(CN4CCN(Cc5c(Cl)cccc5Cl)CC4)ccc32)CCNCC1` [C35; HCl], the EC50 in the experiment on NCI-H460, in the experiment on MIA PaCa-2 and with NCI-H2023 was no more than 5 µM in each case.

As for `Cc1cccc(C)c1CN1CCN(Cc2ccc3c(c2)c(-c2ccc(OC(F)(F)F)cc2)cn3CCCNC(=O)C2(N)CCNCC2)CC1` [C54; HCl], the EC50 with NCI-H460, in the experiment on MIA PaCa-2 and in the experiment on NCI-H2023 was no more than 5 µM in each case.

On to `Cc1ccc(-c2cn(CCCNC(=O)C3(N)CCNCC3)c3ccc(CN4CCN(Cc5c(Cl)cccc5Cl)CC4)cc23)cc1` [C39; HCl], for which the EC50 in the experiment on NCI-H460, in the experiment with MIA PaCa-2 and with NCI-H2023 was no more than 5 µM throughout.

On to `CNCCCn1cc(-c2ccc(OC(F)(F)F)cc2)c2cc(CN3CCN(Cc4c(Cl)cccc4Cl)CC3)ccc21` [C21; Formic acid], for which the EC50 in the experiment with NCI-H460, with MIA PaCa-2 and with NCI-H2023 was no more than 5 µM in each case.

On to `Cc1ccc(-c2cn(CCCN)c3ccc(CN4CCN(Cc5c(Cl)cccc5Cl)CC4)cc23)cc1` [C51; HCl], for which the EC50 in the experiment on NCI-H460, with MIA PaCa-2 and with NCI-H2023 was no more than 5 µM throughout.

Turning to `NCCCn1cc(-c2ccc(OC(F)(F)F)cc2)c2cc(CN3CCN(C(=O)c4ccccc4Cl)CC3)ccc21` [C15; HCl], the EC50 in the experiment on NCI-H460, in the experiment with MIA PaCa-2 and in the experiment with NCI-H2023 was no more than 5 µM in each case.

With `NCC(=O)NCCCn1cc(-c2ccc(OC(F)(F)F)cc2)c2cc(CN3CCN(Cc4c(Cl)cccc4Cl)CC3)ccc21` [C52; HCl], the EC50 in the experiment with NCI-H460, in the experiment with MIA PaCa-2 and in the experiment on NCI-H2023 was no more than 5 µM throughout.

As to `N#Cc1ccc(-c2cn(CCCNC(=O)C3(N)CCNCC3)c3ccc(CN4CCN(Cc5c(Cl)cccc5Cl)CC4)cc23)cc1` [C40; HCl], the EC50 in the experiment with NCI-H460, in the experiment on MIA PaCa-2 and in the experiment on NCI-H2023 was no more than 5 µM throughout.

`CC(=O)NCCCn1cc(-c2ccc(OC(F)(F)F)cc2)c2cc(CN3CCN(Cc4c(Cl)cccc4Cl)CC3)ccc21` [C47; Formic acid]: the EC50 in the experiment with NCI-H460, with MIA PaCa-2 and in the experiment with NCI-H2023 was no more than 5 µM throughout.

Turning to `CCN1CCN(Cc2ccc3c(c2)c(-c2ccc(OC(F)(F)F)cc2)cn3CCCNC(=O)C2(N)CCNCC2)CC1` [C27; HCl], the EC50 in the experiment on NCI-H460 is greater than 30 µM; with MIA PaCa-2, 10 to 30 µM; in the experiment with NCI-H2023 it was 10 to 30 µM.

On to `COc1cccc(OC)c1CN1CCN(Cc2ccc3c(c2)c(-c2ccc(OC(F)(F)F)cc2)cn3CCCNC(=O)C2(N)CCNCC2)CC1` [C49; HCl], for which the EC50 in the experiment on NCI-H460, with MIA PaCa-2 and in the experiment on NCI-H2023 was 5 to 10 µM throughout.

Turning to `N#Cc1cccc(-c2cn(CCCN)c3ccc(CN4CCN(Cc5c(Cl)cccc5Cl)CC4)cc23)c1` [C13; HCl], the EC50 in the experiment on NCI-H460, in the experiment with MIA PaCa-2 and in the experiment on NCI-H2023 was no more than 5 µM in each case.

These data come from US20170158702A1, “MULTIVALENT RAS BINDING COMPOUNDS” (KYRAS THERAPEUTICS, INC., priority 2015, published 2017).
